Assay results as given in ChEMBL document CHEMBL3608268, “Re-exploring the N-phenylpicolinamide derivatives to develop mGlu4 ligands with improved affinity and in vitro microsomal stability” (Bioorg Med Chem Lett, 2015).
One block for each molecule: values may come before it.

How the values were obtained:
[1] = target: T1, Metabotropic glutamate receptor 4 (Homo sapiens, UniProt Q14833); assay: Displacement of [3H]N-(4-chloro-3-methoxyphenyl)picolinamide from human mGlu4 receptor expressed in CHO cell membranes incubated for 30 mins by liquid scintillation counting method
[2] = target: T1, Metabotropic glutamate receptor 4; assay: Positive allosteric modulator activity at human mGlu4 receptor
[3] = pampa
Description: Effective permeability by PAMPA method

[4] = tested on: Liver microsome; assay: Half life in Wistar rat liver microsomes in presence of NADPH generation system by HPLC method; format: ADME
[5] = target: Metabotropic glutamate receptor 4 (Rattus norvegicus, UniProt P31423); assay: Positive allosteric modulator activity at rat mGlu4 receptor
[6] = target: Metabotropic glutamate receptor 1 (Homo sapiens, UniProt Q13255); assay: Activity at mGlu1 receptor (unknown origin) expressed in HEK293 cells by Ca2+ mobilization assay; format: functional, cell-based
[7] = target: Metabotropic glutamate receptor 8 (Homo sapiens, UniProt O00222); assay: Activity at mGlu8 receptor (unknown origin) expressed in HEK293 cells pre-treated for 15 mins before addition of EC80 concentration of reference agonist for another 15 mins by cAMP accumulation assay; format: functional, cell-based
[8] = target: Metabotropic glutamate receptor 6 (Homo sapiens, UniProt O15303); assay: Activity at mGlu6 receptor (unknown origin) expressed in HEK293 cells pre-treated for 15 mins before addition of EC80 concentration of reference agonist for another 15 mins by cAMP accumulation assay; format: functional, cell-based
[9] = target: Metabotropic glutamate receptor 2 (Homo sapiens, UniProt Q14416); assay: Activity at mGlu2 receptor (unknown origin) expressed in HEK293 cells pre-treated for 15 mins before addition of EC80 concentration of reference agonist for another 15 mins by cAMP accumulation assay; format: functional, cell-based
[10] = target: Metabotropic glutamate receptor 5 (Homo sapiens, UniProt P41594); assay: Activity at mGlu5 receptor (unknown origin) expressed in HEK293 cells by Ca2+ mobilization assay; format: functional, cell-based
Metabotropic glutamate receptor 5, sequence (P41594 whole entry): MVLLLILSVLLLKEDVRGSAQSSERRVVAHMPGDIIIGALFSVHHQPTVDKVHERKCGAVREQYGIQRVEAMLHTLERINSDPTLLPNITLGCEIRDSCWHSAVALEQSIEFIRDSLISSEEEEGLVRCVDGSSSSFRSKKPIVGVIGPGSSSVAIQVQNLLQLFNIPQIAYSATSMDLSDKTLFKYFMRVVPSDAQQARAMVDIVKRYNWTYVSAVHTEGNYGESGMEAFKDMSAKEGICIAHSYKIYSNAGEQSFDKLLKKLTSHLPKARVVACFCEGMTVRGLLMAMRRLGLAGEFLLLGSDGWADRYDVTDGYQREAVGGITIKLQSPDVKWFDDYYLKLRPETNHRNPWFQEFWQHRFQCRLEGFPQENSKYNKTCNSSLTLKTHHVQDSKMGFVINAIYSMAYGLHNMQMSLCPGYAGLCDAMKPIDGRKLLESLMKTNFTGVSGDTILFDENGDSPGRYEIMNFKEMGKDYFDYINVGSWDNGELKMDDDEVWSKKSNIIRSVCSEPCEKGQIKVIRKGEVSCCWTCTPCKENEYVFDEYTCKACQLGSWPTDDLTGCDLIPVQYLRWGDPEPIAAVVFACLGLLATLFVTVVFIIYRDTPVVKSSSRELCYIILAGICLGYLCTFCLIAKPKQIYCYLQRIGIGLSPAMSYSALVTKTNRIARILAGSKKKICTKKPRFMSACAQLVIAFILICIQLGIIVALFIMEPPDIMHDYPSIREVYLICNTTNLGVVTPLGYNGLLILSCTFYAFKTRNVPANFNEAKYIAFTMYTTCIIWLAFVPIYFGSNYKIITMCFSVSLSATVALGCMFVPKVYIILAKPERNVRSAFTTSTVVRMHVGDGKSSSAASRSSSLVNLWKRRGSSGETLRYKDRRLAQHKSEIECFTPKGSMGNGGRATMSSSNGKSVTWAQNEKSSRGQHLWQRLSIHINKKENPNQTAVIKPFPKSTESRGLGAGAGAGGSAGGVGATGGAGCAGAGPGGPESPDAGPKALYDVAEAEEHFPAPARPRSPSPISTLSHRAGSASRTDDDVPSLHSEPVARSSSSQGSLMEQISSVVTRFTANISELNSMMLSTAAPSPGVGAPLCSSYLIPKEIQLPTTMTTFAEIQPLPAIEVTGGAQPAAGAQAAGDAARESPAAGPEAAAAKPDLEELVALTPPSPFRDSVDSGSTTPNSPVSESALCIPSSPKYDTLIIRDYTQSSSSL

T1 sequence (Q14833 whole entry): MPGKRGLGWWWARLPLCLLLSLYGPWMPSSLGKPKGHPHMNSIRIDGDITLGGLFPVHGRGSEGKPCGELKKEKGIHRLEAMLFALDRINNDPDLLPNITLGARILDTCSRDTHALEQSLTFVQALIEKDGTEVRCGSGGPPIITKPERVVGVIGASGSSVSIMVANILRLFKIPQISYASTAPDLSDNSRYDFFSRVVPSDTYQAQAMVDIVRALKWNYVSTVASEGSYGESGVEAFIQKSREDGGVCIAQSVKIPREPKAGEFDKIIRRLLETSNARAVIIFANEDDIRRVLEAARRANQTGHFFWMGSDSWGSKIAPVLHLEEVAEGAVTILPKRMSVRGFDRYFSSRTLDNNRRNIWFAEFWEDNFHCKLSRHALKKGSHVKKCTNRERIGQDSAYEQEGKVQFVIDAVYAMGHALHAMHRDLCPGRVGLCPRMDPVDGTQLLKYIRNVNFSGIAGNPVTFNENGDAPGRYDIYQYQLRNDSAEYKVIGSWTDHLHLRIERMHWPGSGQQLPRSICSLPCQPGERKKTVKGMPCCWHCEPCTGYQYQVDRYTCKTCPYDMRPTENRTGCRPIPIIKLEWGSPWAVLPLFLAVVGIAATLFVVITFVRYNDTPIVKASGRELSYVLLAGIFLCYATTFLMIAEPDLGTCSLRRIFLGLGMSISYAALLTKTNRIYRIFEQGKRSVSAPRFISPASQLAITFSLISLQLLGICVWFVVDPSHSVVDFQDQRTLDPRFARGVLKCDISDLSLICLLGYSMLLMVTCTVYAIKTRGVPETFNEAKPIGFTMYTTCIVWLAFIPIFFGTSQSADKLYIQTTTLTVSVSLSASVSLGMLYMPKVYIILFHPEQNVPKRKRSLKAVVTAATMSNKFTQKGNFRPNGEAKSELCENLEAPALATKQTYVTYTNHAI
Metabotropic glutamate receptor 4 (Rattus norvegicus, UniProt P31423), sequence (P31423 whole entry): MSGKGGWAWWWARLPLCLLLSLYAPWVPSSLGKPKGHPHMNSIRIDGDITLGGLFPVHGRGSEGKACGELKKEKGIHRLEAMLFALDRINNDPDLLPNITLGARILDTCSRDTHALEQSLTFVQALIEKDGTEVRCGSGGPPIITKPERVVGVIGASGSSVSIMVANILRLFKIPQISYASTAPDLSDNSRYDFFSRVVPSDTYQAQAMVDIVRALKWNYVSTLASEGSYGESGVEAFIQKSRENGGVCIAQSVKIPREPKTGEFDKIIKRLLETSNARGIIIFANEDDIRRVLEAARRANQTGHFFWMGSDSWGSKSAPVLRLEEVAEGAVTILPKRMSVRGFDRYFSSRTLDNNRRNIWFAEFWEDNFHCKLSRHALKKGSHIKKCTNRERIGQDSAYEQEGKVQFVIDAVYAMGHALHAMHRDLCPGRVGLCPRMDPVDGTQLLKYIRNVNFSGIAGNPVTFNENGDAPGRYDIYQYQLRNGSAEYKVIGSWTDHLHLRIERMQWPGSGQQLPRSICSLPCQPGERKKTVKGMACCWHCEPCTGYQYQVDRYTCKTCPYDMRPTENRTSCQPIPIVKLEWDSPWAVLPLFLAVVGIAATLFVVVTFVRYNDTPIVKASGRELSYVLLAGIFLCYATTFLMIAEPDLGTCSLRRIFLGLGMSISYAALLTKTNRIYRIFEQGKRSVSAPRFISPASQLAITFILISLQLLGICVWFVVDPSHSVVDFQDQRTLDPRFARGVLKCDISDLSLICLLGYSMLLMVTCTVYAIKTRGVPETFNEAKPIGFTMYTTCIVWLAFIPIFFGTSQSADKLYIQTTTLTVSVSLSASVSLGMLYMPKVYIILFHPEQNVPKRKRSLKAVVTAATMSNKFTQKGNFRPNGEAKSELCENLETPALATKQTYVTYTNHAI
Metabotropic glutamate receptor 6, sequence (O15303 whole entry): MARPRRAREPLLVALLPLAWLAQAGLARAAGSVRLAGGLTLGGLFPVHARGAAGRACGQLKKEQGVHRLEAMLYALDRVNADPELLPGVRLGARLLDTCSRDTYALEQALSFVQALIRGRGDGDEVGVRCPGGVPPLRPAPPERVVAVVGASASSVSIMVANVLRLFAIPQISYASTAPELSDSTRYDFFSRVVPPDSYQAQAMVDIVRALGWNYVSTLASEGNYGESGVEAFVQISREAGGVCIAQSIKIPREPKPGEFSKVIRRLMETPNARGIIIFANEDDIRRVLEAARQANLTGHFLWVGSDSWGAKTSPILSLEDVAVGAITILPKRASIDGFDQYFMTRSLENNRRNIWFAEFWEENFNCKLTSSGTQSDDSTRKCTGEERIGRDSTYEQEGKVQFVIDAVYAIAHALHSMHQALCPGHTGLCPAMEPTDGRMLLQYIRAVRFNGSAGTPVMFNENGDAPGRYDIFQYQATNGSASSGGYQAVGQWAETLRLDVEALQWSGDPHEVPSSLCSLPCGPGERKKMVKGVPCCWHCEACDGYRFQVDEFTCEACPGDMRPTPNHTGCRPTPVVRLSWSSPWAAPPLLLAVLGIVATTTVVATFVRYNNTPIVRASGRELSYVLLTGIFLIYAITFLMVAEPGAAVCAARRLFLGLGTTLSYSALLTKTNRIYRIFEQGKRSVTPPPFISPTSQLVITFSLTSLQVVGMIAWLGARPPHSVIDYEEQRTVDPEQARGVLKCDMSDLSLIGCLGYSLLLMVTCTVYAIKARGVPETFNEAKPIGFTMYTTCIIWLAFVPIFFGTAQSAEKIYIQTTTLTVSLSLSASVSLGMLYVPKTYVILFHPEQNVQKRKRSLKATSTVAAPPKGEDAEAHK
Metabotropic glutamate receptor 2, sequence (Q14416 whole entry): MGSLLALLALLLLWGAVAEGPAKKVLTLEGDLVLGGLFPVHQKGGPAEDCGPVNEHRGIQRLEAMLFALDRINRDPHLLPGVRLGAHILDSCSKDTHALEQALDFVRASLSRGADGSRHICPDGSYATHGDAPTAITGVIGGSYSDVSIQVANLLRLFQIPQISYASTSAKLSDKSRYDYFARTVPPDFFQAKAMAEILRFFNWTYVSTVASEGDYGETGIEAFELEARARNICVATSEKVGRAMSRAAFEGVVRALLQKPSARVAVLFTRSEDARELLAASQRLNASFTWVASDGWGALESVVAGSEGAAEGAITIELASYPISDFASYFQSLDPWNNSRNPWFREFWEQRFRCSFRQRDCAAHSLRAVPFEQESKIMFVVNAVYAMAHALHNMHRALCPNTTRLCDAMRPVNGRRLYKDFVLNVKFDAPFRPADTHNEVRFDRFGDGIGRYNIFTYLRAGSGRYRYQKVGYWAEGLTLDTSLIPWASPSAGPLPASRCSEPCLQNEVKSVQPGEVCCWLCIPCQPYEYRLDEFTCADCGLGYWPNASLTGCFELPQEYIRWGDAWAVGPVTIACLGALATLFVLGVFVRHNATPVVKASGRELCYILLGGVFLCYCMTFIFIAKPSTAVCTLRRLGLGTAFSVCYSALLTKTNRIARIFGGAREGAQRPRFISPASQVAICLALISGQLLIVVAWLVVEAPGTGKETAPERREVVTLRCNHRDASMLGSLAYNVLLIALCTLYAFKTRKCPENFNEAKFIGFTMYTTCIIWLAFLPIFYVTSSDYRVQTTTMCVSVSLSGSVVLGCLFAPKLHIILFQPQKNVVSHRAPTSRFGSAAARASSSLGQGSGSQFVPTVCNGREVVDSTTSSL

Compound: CSc1cccc(NC(=O)c2ccccn2)c1
IC50 [1]: 0.0049 µM

EC50 [2]: 0.009 µM
Compound: c1cnc(Nc2nc3c(s2)CCCc2[nH]ncc2-3)nc1

Compound: COc1cc(NC(=O)c2cccc(F)n2)ccc1Cl
IC50 [1]: 0.0073 µM

Compound: Cc1ccnc(Nc2nc(-c3cn[nH]c3)c(C)s2)n1
Peff [3]: 257 ×10⁻⁶ cm/s
t1/2 [4]: 7 min
EC50 [5]: 0.009 µM

Compound: COc1cc(NC(=O)c2ccccn2)ccc1Br
IC50 [1]: 0.322 µM

Compound: COc1cc(NC(=O)c2ccccn2)ccc1I
IC50 [1]: 0.146 µM

Compound: COc1cccc(NC(=O)c2ccccn2)c1
IC50 [1]: 0.0137 µM

Compound: O=C(Nc1cccc(OC(F)F)c1)c1cccc(F)n1
IC50 [1]: 0.0067 µM

Compound: COc1cc(NC(=O)c2cccc(F)n2)ccc1F
IC50 [1]: 0.0892 µM

Compound: N#Cc1cccc(NC(=O)c2ccccn2)c1
IC50 [1]: 0.0104 µM

Compound: N#Cc1cc(NC(=O)c2ccccn2)ccc1F
IC50 [1]: 0.0074 µM

Compound: N#Cc1cc(NC(=O)c2ccccn2)ccc1Cl
IC50 [1]: 0.0053 µM

Compound: N#Cc1cc(NC(=O)c2ccccn2)ccc1Br
IC50 [1]: 0.047 µM

Compound: N#Cc1cc(NC(=O)c2ccccn2)ccc1I
IC50 [1]: 0.172 µM

Compound: O=C(Nc1ccc(Cl)c(OCF)c1)c1ccccn1
Peff [3]: 272 ×10⁻⁶ cm/s
t1/2 [4]: 5.8 min
IC50 [1]: 0.0032 µM

Compound: [2H]C([2H])(F)Oc1cc(NC(=O)c2ccccn2)ccc1Cl
IC50 [6]: > 30 µM
IC50 [7]: > 30 µM
IC50 [8]: > 30 µM
IC50 [9]: > 30 µM
t1/2 [4]: 7.4 min
IC50 [10]: > 30 µM
IC50 [1]: 0.0032 µM

Compound: [2H]C([2H])(F)Oc1cccc(NC(=O)c2ccccn2)c1
IC50 [1]: 0.0037 µM

Compound: O=C(Nc1cccc(OC(F)F)c1)c1ccccn1
Peff [3]: 214 ×10⁻⁶ cm/s
t1/2 [4]: 5.2 min

Compound: COc1cc(NC(=O)c2ccccn2)ccc1F
IC50 [1]: 0.0316 µM

EC50 [2]: 1.2 µM
EC50 [5]: 0.33 µM
Compound: O=C(Nc1cccc(Cl)c1)c1ccccn1

Compound: COc1cc(NC(=O)c2ccccn2)ccc1Cl
Peff [3]: 256 ×10⁻⁶ cm/s
t1/2 [4]: 4.9 min
